Earlier results in patent publication US20070015719A1 (Elan Pharma International Limited, priority 2005, published 2007).

Conditions: in acidic solutions

## 6-o-methyl erythromycin A [clarithromycin]
  stability: stable
